From patent US4567200A, “Esters of mercapto acyl-carnitines and pharmaceutical compositions containing same” (Sigma-Tau Industrie Farmaceutiche Riunite S.p.A., priority 1981, dated 1986) come the findings set out here.

Counter-ions that a name gives are not always drawn.

For orientation: LD50 means the dose at which mortality reaches 50%. Low values mean greater toxicity, high ones lower toxicity.

The nature of series [1]: Cutaneous regeneration from burns in rabbits. Type of series: in vivo. Conditions: 25 mg Kg^-1 oral once a day for seven days. The procedure:
The ability of the compounds of formula (I) to speed up the cutaneous regeneration from burns has been tested in rabbits.
A 4 cm^2 cutaneous area of the average-top zone of the test animal back was burned.
The compounds were orally administered in aqueous solution at the dose of 25 mg Kg^-1 once a day for seven days. The area of cutaneous regeneration, i.e., the area of the newly formed tissue was then measured (Table III).

Series [2] is described as follows: Acute toxicity in the mouse, Weil method. Conditions: in vivo, ip. The text has this:
The acute toxicity of the compounds of general formula (I) has been studied in the mouse with the Weil method (Weil C.S., Biometr. J. 8, 249, 1952).
The LD50 values of some compounds illustrated in Table I, indicate that the compounds are remarkably well tolerated.
LD50, mg Kg^-1, ep in mice of some mercapto
acyl-carnitine esters of general formula (I).
Weil's method (N = 5, K = 4)

Series [3] can be described thus: Protection against X-ray exposure, survival of irradiated rats. Type of series: in vivo, Albino Wister rats. The conditions noted are these: 20-25 mg Kg^-1 1 hour before irradiation and 10 mg Kg^-1 per day in subsequent 20 days. The procedure: The effect of the compounds of formula (I) towards the damages provoked by X-ray exposure was studied.
The experiment animals, Albino Wister rats, treated with the compounds under examination (20-25 mg Kg^-1 1 hour before irradiation and 10 mg Kg^-1 per day in the subsequent 20 days) were irradiated and checked over a time period to detect the onset of toxic effects and the time of survival with respect to the control group.
In table II, the percentage of survival at the 10th, 15th and 20th day from irradiation are reported.

Series [4] is described as follows: Expectorant activity (bronchial secretion), method of Perry et al. The conditions noted are these: rabbits. The format is in vivo, male rabbits. As to the method:
The tests were carried out on male rabbits, weighing 2-3 Kg, anesthetized with ethyl urethane, by following the method disclosed by Perry et al. (J. Pharm. Exp. Ther. 73, 65, 1941).
Each cannula was connected to a feeding device which delivered a steady flow-rate of pre-heated air (36°-38° C.) at constant humidity (80%). At the lower end of each cannula, a graduated cylinder was fitted, wherein the bronchial secretion was collected. All of the animals breathed spontaneously and consequently they self-regulated the air intake suitable for normal respiration. After an hour following cannula insertion, the animals were administered orally (by stomach tube) the compounds of general formula (I) dissolved in distilled water at the doses indicated in Table IV. Each dose of drug was administered to 5 animals. The control animals (8) were given water only. The amount of secretion was determined after 1, 2 and 4 hours from administration.

Series [5] can be described thus: Mucolytic activity in vitro, thromboelastograph, method of Morandini et al. Conditions: human sputum. As to the method:
The tests were carried out in vitro by using the method disclosed by Morandini et al. (Lotta contro la tubercolosi 47, n. 4, 1977). A thromboelastograph was used to follow the variations induced by the compounds of general formula (I) and acetylcysteine on the rheological properties of human sputum.

[6] abbreviates: 1 ml of a 10% solution at dilution 1/30.
Setting [7] is: 1 ml of a 10% solution at dilution 1/60.

Regarding `CCC(S)C(=O)OC(CC(=O)OCC(C)C)C[N+](C)(C)C` (stereo not shown) [2-mercapto butyryl carnitine isobutyl ester], the “Percentage of regenerated tissue” value stood at 35% in series [1] (4th day from treatment) and 70% in series [1] (8th day from treatment). This molecule also yielded a 50% lethal dose (LD50) in series [2] of 236 mg/kg. Besides, the entries for the “Percentage of surviving animals” value in series [3] (10th day from irradiation), in series [3] (15th day from irradiation) and in series [3] (20th day from irradiation) were 95%, 65% and 50%, respectively. For the same molecule, the “Percentage variations of bronchial secretion versus values” (shortened to “Percentage variations”) in series [4] (oral 20 mg, 2 hours) is recorded as -0.4%; in series [4] (oral 20 mg, 4 hours) it was “+0.2%”. The “Percentage drop ± s.e. of the tracing versus maximum peak (mucolytic activity index)” value in series [5] (setting [6]) is listed as 95.9 ± 5%; in series [5] (setting [7]), 51.2 ± 3%.
Consider `CC(C)COC(=O)CC(C[N+](C)(C)C)OC(=O)C(C)S` (stereo not shown) [2-mercapto propionyl carnitine isobutyl ester], for which the results for the “Percentage of regenerated tissue” value in series [1] (4th day from treatment) and in series [1] (8th day from treatment) were 25% and 65%, respectively. This molecule registered a median lethal dose (LD50) in series [2] of 274 mg/kg. Besides, the “Percentage of surviving animals” value in series [3] (10th day from irradiation) stood at 85%; in series [3] (15th day from irradiation) it was 70%; in series [3] (20th day from irradiation), 45%. The “Percentage variations” value in series [4] (oral 15 mg, 2 hours) is listed as -0.1%; in series [4] (oral 15 mg, 4 hours) it was “+0.5%”. The “Percentage drop ± s.e. of the tracing versus maximum peak (mucolytic activity index)” value in series [5] (setting [6]) came out at 80.4 ± 7%; in series [5] (setting [7]) it was 42.8 ± 4%.
Regarding `CCOC(=O)CC(C[N+](C)(C)C)OC(=O)CCS` (stereo not shown) [3-mercapto propionyl carnitine ethyl ester], the “Percentage of regenerated tissue” value in series [1] (4th day from treatment) was 40%; in series [1] (8th day from treatment), 100%. Besides, the 50% lethal dose (LD50) in series [2] came out at 228 mg/kg. The entries for the “Percentage of surviving animals” value in series [3] (10th day from irradiation), in series [3] (15th day from irradiation) and in series [3] (20th day from irradiation) were 90%, 85% and 60%, respectively. The “Percentage variations” value in series [4] (oral 20 mg, 1 hour) is “+0.6%”; in series [4] (oral 20 mg, 2 hours) it was “+0.8%”; in series [4] (oral 20 mg, 4 hours) it was “+1.0%”. The figures for the “Percentage drop ± s.e. of the tracing versus maximum peak (mucolytic activity index)” value in series [5] (setting [6]) and in series [5] (setting [7]) were 79.8 ± 4% and 39.5 ± 5%, respectively.
On to `CC(C)COC(=O)CC(C[N+](C)(C)C)OC(=O)CCCS` (stereo not shown) [4-mercapto butyryl carnitine isobutyl ester], for which the “Percentage of regenerated tissue” value in series [1] (4th day from treatment) was found to be 25%; in series [1] (8th day from treatment), 75%. Also, the LD50 in series [2] stood at 231 mg/kg. Moreover, the “Percentage of surviving animals” value was determined as 100% in series [3] (10th day from irradiation), 75% in series [3] (15th day from irradiation) and 55% in series [3] (20th day from irradiation). In addition, the “Percentage variations” value is “+0.5%” in series [4] (oral 25 mg, 1 hour); “+0.9%” in series [4] (oral 25 mg, 2 hours); “+2.1%” in series [4] (oral 25 mg, 4 hours).
On to `COC(=O)CC(C[N+](C)(C)C)OC(=O)CCCCS` (stereo not shown) [5-mercapto valeryl carnitine methyl ester], for which the “Percentage of regenerated tissue” value in series [1] (4th day from treatment) is 45%; in series [1] (8th day from treatment) it was 100%. The molecule further gave a 50% lethal dose (LD50) in series [2] of 219 mg/kg. Moreover, the entries for the “Percentage of surviving animals” value in series [3] (10th day from irradiation), in series [3] (15th day from irradiation) and in series [3] (20th day from irradiation) were 85%, 60% and 40%, respectively. Moreover, the “Percentage variations” value in series [4] (oral 20 mg, 1 hour) is “+0.3%”; in series [4] (oral 20 mg, 2 hours), “+0.5%”; in series [4] (oral 20 mg, 4 hours), “+1.0%”. Besides, the figures for the “Percentage drop ± s.e. of the tracing versus maximum peak (mucolytic activity index)” value in series [5] (setting [6]) and in series [5] (setting [7]) were 90.2 ± 6% and 48.4 ± 4%, respectively.
For `CC(=O)N[C@@H](CS)C(=O)O` [Acetylcysteine, acetylcysteine, reference compound], the “Percentage drop ± s.e. of the tracing versus maximum peak (mucolytic activity index)” value in series [5] (setting [6]) was determined as 75.6 ± 7%; in series [5] (setting [7]), 23.8 ± 5%.
As for `CC(C)OC(=O)CC(C[N+](C)(C)C)OC(=O)CS` (stereo not shown) [mercapto acetyl carnitine hydrochloride isopropyl-ester], the “Percentage of regenerated tissue” value in series [1] (4th day from treatment) is on record as 30%; in series [1] (8th day from treatment), 70%. In series [2], this molecule gave a median lethal dose (LD50) of 250 mg/kg. The “Percentage of surviving animals” value in series [3] (10th day from irradiation) came to 80%; in series [3] (15th day from irradiation), 55%; in series [3] (20th day from irradiation), 30%. Also, the “Percentage variations” value is listed as “+0.5%” in series [4] (oral 15 mg, 1 hour); “+0.7%” in series [4] (oral 15 mg, 2 hours); “+2.1%” in series [4] (oral 15 mg, 4 hours). The “Percentage drop ± s.e. of the tracing versus maximum peak (mucolytic activity index)” value worked out at 82.5 ± 5% in series [5] (setting [6]) and 44.3 ± 3% in series [5] (setting [7]).
